Data as given in PubChem BioAssay AID1845210 (Molecular Pharmacology Branch, DTP, NCI, 2023).

System: NCI-H226 complex tumor spheroids, viability
Assay: Anticancer human tumor NCI-H226 cell line growth inhibition;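 note: spheroids exposed to compound for 7 days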;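 for viability, T/C: 100% = DMSO vehicle control viability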
Conditions: for IC50: curve of first compound; for viability, T/C: stronger effect = lower value
In short: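 Complex tumor spheroids combined malignant cells with endothelial cells and mesenchymal stem cells. DNA-damaging drugs and DNA repair inhibitors were tested alone and in combination, at half-log dilutions down from clinical Cmax (top 10 microM if Cmax unknown), 0.25% DMSO final.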

[1] = second compound 0.003 µM, first compound 0.0316 µM
[2] = second compound 0.003 µM, first compound 0.1 µM
[3] = second compound 0.003 µM, first compound 0.316 µM
[4] = second compound 0.003 µM, first compound 1 µM
[5] = second compound 0.003 µM, first compound 3.16 µM
[6] = second compound 0.003 µM, first compound 10 µM
[7] = second compound 0.00949 µM, first compound 0.0316 µM
[8] = second compound 0.00949 µM, first compound 0.1 µM
[9] = second compound 0.00949 µM, first compound 0.316 µM
[10] = second compound 0.00949 µM, first compound 1 µM
[11] = second compound 0.00949 µM, first compound 3.16 µM
[12] = second compound 0.00949 µM, first compound 10 µM
[13] = second compound 0.03 µM, first compound 0.0316 µM
[14] = second compound 0.03 µM, first compound 0.1 µM
[15] = second compound 0.03 µM, first compound 0.316 µM
[16] = second compound 0.03 µM, first compound 1 µM
[17] = second compound 0.03 µM, first compound 3.16 µM
[18] = second compound 0.03 µM, first compound 10 µM
[19] = second compound 0.0949 µM, first compound 0.0316 µM
[20] = second compound 0.0949 µM, first compound 0.1 µM
[21] = second compound 0.0949 µM, first compound 0.316 µM
[22] = second compound 0.0949 µM, first compound 1 µM
[23] = second compound 0.0949 µM, first compound 3.16 µM
[24] = second compound 0.0949 µM, first compound 10 µM
[25] = second compound 0.3 µM, first compound 0.0316 µM
[26] = second compound 0.3 µM, first compound 0.1 µM
[27] = second compound 0.3 µM, first compound 0.316 µM
[28] = second compound 0.3 µM, first compound 1 µM
[29] = second compound 0.3 µM, first compound 3.16 µM
[30] = second compound 0.3 µM, first compound 10 µM

Structure (SMILES)	IC50 (second compound 0.003 µM)	IC50 (second compound 0.00949 µM)	IC50 (second compound 0.03 µM)	IC50 (second compound 0.0949 µM)	IC50 (second compound 0.3 µM)	viability, T/C [1]	viability, T/C [2]	viability, T/C [3]	viability, T/C [4]	viability, T/C [5]	viability, T/C [6]	viability, T/C [7]	viability, T/C [8]	viability, T/C [9]	viability, T/C [10]	viability, T/C [11]	viability, T/C [12]	viability, T/C [13]	viability, T/C [14]	viability, T/C [15]	also measured
CC1COCCN1c1cc(-c2ccnn2C)c2ccnc(-c3ccn[nH]3)c2n1 (stereo not given) + CC[C@@]1(O)C(=O)OCc2c1cc1n(c2=O)Cc2cc3c(CN(C)C)c(O)ccc3nc2-1	1040 nM	1090 nM	823 nM	814 nM	518 nM	97.2%	81.5%	74%	47.6%	39.2%	36.1%	93.8%	85.1%	69.3%	52.5%	36.1%	33.4%	83.1%	76.3%	63.6%	viability, T/C [16]: 48.1%; viability, T/C [17]: 36.8%; viability, T/C [18]: 37.9%; viability, T/C [19]: 82.2%; viability, T/C [20]: 71.3%; viability, T/C [21]: 65.1%; viability, T/C [22]: 46.1%; viability, T/C [23]: 37.4%; viability, T/C [24]: 34.9%; viability, T/C [25]: 71.2%; viability, T/C [26]: 66.9%; viability, T/C [27]: 56.8%; viability, T/C [28]: 41.4%; viability, T/C [29]: 36.3%; viability, T/C [30]: 38.1%
COc1cc(C)[nH]c(=O)c1CN1CCc2c(Cl)cc(C(OC)C3COC3)c(Cl)c2C1=O (stereo not given) + CC[C@@]1(O)C(=O)OCc2c1cc1n(c2=O)Cc2cc3c(CN(C)C)c(O)ccc3nc2-1	> 10000 nM	> 10000 nM	> 10000 nM	> 10000 nM	> 10000 nM	93.7%	123%	110%	122%	112%	98.5%	88.6%	102%	100%	95.8%	99.2%	97.3%	86.4%	87%	80.6%	viability, T/C [16]: 92.7%; viability, T/C [17]: 92.6%; viability, T/C [18]: 87.4%; viability, T/C [19]: 97.3%; viability, T/C [20]: 93.1%; viability, T/C [21]: 86.4%; viability, T/C [22]: 92.9%; viability, T/C [23]: 88.3%; viability, T/C [24]: 81.6%; viability, T/C [25]: 71.4%; viability, T/C [26]: 73.3%; viability, T/C [27]: 72%; viability, T/C [28]: 75.2%; viability, T/C [29]: 69.9%; viability, T/C [30]: 72.9%
COc1ccc([C@@H](O)c2cc(-c3ncnc4cc(N5CCOCC5)ccc34)c(F)cc2Cl)nn1 + CC[C@@]1(O)C(=O)OCc2c1cc1n(c2=O)Cc2cc3c(CN(C)C)c(O)ccc3nc2-1	4240 nM	2920 nM	1880 nM	2480 nM	1520 nM	98.2%	96.3%	88.3%	71.1%	56.7%	34.7%	87.8%	98.7%	90.6%	74.5%	48.9%	35.2%	79.6%	81.7%	75.6%	viability, T/C [16]: 57.1%; viability, T/C [17]: 44.1%; viability, T/C [18]: 30.2%; viability, T/C [19]: 90.4%; viability, T/C [20]: 83.1%; viability, T/C [21]: 74.8%; viability, T/C [22]: 65.2%; viability, T/C [23]: 44.8%; viability, T/C [24]: 30.3%; viability, T/C [25]: 68.1%; viability, T/C [26]: 73.2%; viability, T/C [27]: 65.9%; viability, T/C [28]: 55.8%; viability, T/C [29]: 39.8%; viability, T/C [30]: 30.8%
Cc1cc(C)c(CNC(=O)c2cc(-c3ccc(CN4CCOCC4)cc3)cc3c2cnn3C2CCCC2)c(=O)[nH]1 + CC[C@@]1(O)C(=O)OCc2c1cc1n(c2=O)Cc2cc3c(CN(C)C)c(O)ccc3nc2-1	> 10000 nM	> 10000 nM	> 10000 nM	> 10000 nM	> 10000 nM	101%	96.8%	98.3%	85.3%	95.7%	108%	87.2%	88.8%	92.4%	82.9%	78.6%	96.3%	91.8%	78.3%	87.6%	viability, T/C [16]: 88.9%; viability, T/C [17]: 79.7%; viability, T/C [18]: 95.3%; viability, T/C [19]: 70.7%; viability, T/C [20]: 72.9%; viability, T/C [21]: 71%; viability, T/C [22]: 77.5%; viability, T/C [23]: 76.1%; viability, T/C [24]: 106%; viability, T/C [25]: 64%; viability, T/C [26]: 62.4%; viability, T/C [27]: 67%; viability, T/C [28]: 68.5%; viability, T/C [29]: 79.8%; viability, T/C [30]: 95.2%
[2H]c1nc(C)nc([2H])c1-c1cc(NC[C@@H](C)c2cccc3c(C(=O)NC)ccnc23)ncn1 + CC[C@@]1(O)C(=O)OCc2c1cc1n(c2=O)Cc2cc3c(CN(C)C)c(O)ccc3nc2-1	> 10000 nM	> 10000 nM	> 10000 nM	> 10000 nM	> 10000 nM	89.6%	93.2%	92.6%	82%	79.5%	88.1%	86.8%	88.3%	93%	86.7%	84.3%	88.5%	79%	82%	84.3%	viability, T/C [16]: 79%; viability, T/C [17]: 81.5%; viability, T/C [18]: 73%; viability, T/C [19]: 88.8%; viability, T/C [20]: 89%; viability, T/C [21]: 85.1%; viability, T/C [22]: 83%; viability, T/C [23]: 80.5%; viability, T/C [24]: 86.5%; viability, T/C [25]: 59.8%; viability, T/C [26]: 70.4%; viability, T/C [27]: 65.5%; viability, T/C [28]: 71.9%; viability, T/C [29]: 59.5%; viability, T/C [30]: 60.7%
